In patent US20120190666A1, “Heteroaryl Compounds as PIKK Inhibitors” (Amgen Inc., priority 2009, published 2012):
pIC50: −log10 of the molar value.

Tests used:
mTOR = mTOR (Homo sapiens, UniProt P42345); test: mTOR LanthaScreen (TR-FRET, phosphorylation of 4EBP1); format: biochemical; conditions: phosphorylation of GFP-4E-BP1, 10 μM ATP, 90 minutes
Protocol: The mTOR LanthaScreen is a TR-FRET assay measuring the phosphorylation of mTOR's substrate 4EBP1. 384 well compound plates were prepared containing 1 μl of compound per well starting at 5 mM and diluted 1:2 across the row, resulting in a 22 well serial dilution. 24 μl of assay buffer (Invitrogen, PV4794) with 2 mM DTT was added to the compound plate in rows 1-24 using the VELOCITY 11™ VPREP™ 384 ST resulting in a DMSO concentration of 4%. The compound plate was mixed and 2.5 μl of serially diluted compound or controls was added to the assay plate (Costar, 3658).
The assay was conducted on the PerkinElmer® FlexDrop PLUS. A 5 μl mix of 800 nM GFP-4E-BP1 (Invitrogen, PV4759) and 20 μM ATP (Amgen) was added to rows 1-24. 2.5 μl of 0.6 μg/ml of mTOR Enzyme (Amgen) was added to rows 1-23. 2.5 μl of assay buffer was added to row 24 for the low control. The final concentration of the compounds was 50 μM serially diluted to 23.84 pM in 1% DMSO. […] The final concentrations in the assay reagents were 400 nM GFP-4E-BP1, 10 μM of ATP and 0.15 μg/ml of mTOR enzyme. The compound, enzyme, and substrate were incubated for 90 minutes. At this point, 10 μl of stop solution was added (20 mM Tris, pH 7.5 (Invitrogen, 15567-027), 0.02% Sodium Azide (Teknova, S0208), 0.01% NP-40 (Roche, 11754599001), 20 mM EDTA (Invitrogen, 15575-038) and 4 nM of Tb-anti-p4E-BP1 (Invitrogen, PV4758)) for a final concentration of 2 nM of Tb-anti-p4E-BP1.
Sixty minutes later the plates were read on the PerkinElmer® EnVision™ 2103 Multilable Reader using the Excitation filter 340 nm and the Emission filters 520 nm and 495 nm.

PI3Kα = target: T1, PI3Kα (Homo sapiens, UniProt P42336); test: In vitro PI3K AlphaScreen assay, PI3Kα; format: biochemical; conditions: PI(4,5)P2 substrate, 20 minutes at room temperature, read-out: P13Kalpha IC50 um
T1 construct: Full length p110 subunits of PI3K α, β and δ, N-terminally labeled with polyHis tag; polyHis (N); made in house; host or cells: Sf9 insect cells (baculovirus)
T1 sequence (P42336 whole entry): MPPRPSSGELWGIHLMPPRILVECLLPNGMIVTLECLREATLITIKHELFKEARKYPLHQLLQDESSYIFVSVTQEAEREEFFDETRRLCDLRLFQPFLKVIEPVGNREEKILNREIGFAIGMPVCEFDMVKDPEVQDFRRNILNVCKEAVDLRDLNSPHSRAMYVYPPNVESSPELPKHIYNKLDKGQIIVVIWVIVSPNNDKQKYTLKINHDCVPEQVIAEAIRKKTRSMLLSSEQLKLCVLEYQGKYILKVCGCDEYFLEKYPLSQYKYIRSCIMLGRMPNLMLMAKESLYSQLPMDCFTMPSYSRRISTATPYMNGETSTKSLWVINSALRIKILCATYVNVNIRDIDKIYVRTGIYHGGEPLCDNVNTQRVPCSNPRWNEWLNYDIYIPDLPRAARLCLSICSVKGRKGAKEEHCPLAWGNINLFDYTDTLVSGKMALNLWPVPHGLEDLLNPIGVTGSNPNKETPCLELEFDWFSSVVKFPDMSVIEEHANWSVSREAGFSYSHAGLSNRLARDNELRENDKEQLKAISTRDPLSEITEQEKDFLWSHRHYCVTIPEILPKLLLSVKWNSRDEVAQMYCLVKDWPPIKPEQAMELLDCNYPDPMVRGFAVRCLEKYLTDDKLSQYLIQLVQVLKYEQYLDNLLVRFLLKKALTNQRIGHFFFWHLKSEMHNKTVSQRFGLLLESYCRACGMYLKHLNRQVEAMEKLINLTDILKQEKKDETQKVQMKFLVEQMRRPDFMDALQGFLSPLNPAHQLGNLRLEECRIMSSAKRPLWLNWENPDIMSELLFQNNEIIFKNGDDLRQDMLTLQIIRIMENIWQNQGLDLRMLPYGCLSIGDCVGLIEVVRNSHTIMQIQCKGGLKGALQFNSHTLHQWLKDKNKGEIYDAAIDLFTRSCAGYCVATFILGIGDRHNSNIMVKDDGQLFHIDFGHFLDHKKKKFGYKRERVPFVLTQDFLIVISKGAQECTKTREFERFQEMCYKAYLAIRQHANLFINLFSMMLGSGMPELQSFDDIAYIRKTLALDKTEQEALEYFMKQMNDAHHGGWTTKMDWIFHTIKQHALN
T1 sequence (P27986 whole entry partner): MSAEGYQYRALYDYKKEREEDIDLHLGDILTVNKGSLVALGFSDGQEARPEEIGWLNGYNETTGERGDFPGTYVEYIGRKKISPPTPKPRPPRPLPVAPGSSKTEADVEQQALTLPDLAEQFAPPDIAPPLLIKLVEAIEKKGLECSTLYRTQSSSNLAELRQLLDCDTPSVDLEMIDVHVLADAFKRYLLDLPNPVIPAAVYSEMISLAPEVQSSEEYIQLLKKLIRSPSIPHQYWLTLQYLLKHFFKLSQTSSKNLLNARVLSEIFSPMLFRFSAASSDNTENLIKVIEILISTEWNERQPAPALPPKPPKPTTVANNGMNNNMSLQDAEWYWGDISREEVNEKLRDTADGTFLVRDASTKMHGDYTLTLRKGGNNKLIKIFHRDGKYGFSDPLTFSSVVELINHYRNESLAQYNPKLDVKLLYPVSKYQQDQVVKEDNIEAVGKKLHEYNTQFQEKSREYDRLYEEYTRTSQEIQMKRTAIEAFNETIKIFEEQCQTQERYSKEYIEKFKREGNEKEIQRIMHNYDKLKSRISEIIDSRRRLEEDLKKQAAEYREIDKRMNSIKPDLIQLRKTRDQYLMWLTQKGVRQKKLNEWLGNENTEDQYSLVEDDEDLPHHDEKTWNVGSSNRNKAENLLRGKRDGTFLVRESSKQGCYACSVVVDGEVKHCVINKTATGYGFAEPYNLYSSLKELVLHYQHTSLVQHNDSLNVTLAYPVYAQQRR
Protocol: The PI3K AlphaScreen® assay (PerkinElmer, Waltham, Mass.) measures the activity of a panel of four phosphoinositide 3-kinases: PI3Kα, PI3KIβ, PI3Kγ, and PI3Kδ. Each of these enzymes phosphorylates the 3′-hydroxyl group on phosphatidylinositiol (4,5)-bisphosphate (PIP2) to produce phosphatidylinositol (3,4,5)-trisphosphate (PIP3). This phosphorylation activity is measured using a GST-tagged PIP3 binding protein (Echelon Biosciences, Salt Lake City, Utah), an anti-GST-tagged Acceptor bead, and streptavidin-Donor bead. The interaction of biotinylated-PIP3 analog (IP4) and the PIP3 binding protein brings both Acceptor and Donor beads together producing, upon excitation of the Donor beads at 680 nm, a singlet oxygen species leading to the luminescent AlphaScreen® signal. When PIP3 is produced via phosphorylation of PIP2 by a PI3K, PIP3 competes with biotinylated-PIP3 analog (IP4) for binding to the PIP3 binding protein. In the absence of this interaction, proximity of the Donor and Acceptor beads is decreased, producing a loss of luminescent signal which is […] to PI3K activity. […] The enzyme reaction buffer is made using sterile water (Baxter, Deerfield, Ill.) and 50 mM Tris HCl pH 7, 14 mM MgCl2, 2 mM sodium cholate, and 100 mM NaCl. 2 mM DTT is added fresh the day of the experiment. The AlphaScreen® reaction buffer is made using sterile water and 10 mM Tris HCl pH 7.5, 150 mM NaCl, 0.10% Tween 20, and 30 mM EDTA. 1 mM DTT is added fresh the day of the experiment. The source plates for this assay are 384-well Greiner clear polypropylene plates containing test compounds at 5 mM and diluted 1:2 over 22 points. Columns 23 and 24 contain only DMSO as these are designated for positive and negative controls. Source plates are replicated into 384-well Optiplates (PerkinElmer, Waltham, Mass.), 0.5 μL/well, to make assay-ready plates. The different PI3K isoforms are each diluted in enzyme reaction buffer to 2× working solutions. PI3Kα is diluted to 1.6 nM, PI3Kβ is diluted to 0.8 nM, PI3Kγ is diluted to 15 nM, and PI3Kδ is diluted to 1.6 nM. Two different 2× substrate solutions are made in enzyme reaction buffer. In one solution, PI(4,5)P2 (Echelon Biosciences, Salt Lake City, Utah) is diluted to 10 μM and ATP is diluted to 20 μM. This solution is used in the assays testing PI3Kα and PI3Kβ. In a second solution, PI(4,5)P2 is diluted to 10 μM and ATP is diluted to 80 μM. This solution is used in the assays testing PI3Kγ and PI3Kδ. The AlphaScreen® reaction solutions are made using beads from the anti-GST AlphaScreen® kit (PerkinElmer, Waltham, Mass.). Two solutions are made in Alphascreen reaction buffer to 4× working concentrations. In one solution, biotinylated-IP4 (Echelon Biosciences, Salt Lake City, Utah) is diluted to 40 nM and streptavadin-Donor Beads are diluted to 80 μg/mL. In the second solution, PIP3-binding protein (Echelon Biosciences, Salt Lake City, Utah) is diluted to 40 nM and anti-GST-Acceptor Beads are diluted to 80 μg/mL. 10 μL/well of enzyme reaction buffer is added to Column 24 of the assay ready plates in place of enzyme. This is done for plates in the PI3Kα, β, and δ assays. Using a 384-well dispensing Multidrop (Titertek, Huntsville, Ala.), 10 μL/well of 2× enzyme (PI3Kα, β, δ) is added to Columns 1-23 of the appropriate assay ready plates (for PI3Kγ 10 μL is added to Columns 1-24). 10 μL/well of the appropriate substrate solution (the solution with 20 μM ATP for PI3Kα and β assays, and the solution with […] for PI3Kγ and δ assays) is then added to Columns 1-24 of the plates. Plates are then incubated at room temperature for 20 minutes. In the dark, 10 μL/well of the Donor Bead solution is added to Columns 1-24 of the plates to quench the enzyme reaction. The plates are incubated at room temperature for 30 minutes. Still in the dark, 10 μL/well of the Acceptor Bead solution is also added to Columns 1-24 of the plates. The plates are then incubated in the dark for 1.5 hours.

## Cc1nc(N)nc(-c2c(Nc3ccn[nH]3)nc3ccc(CCC(O)CO)cn23)n1 (centres unmarked) [Cpd 291, 4-(3-(4-amino-6-methyl-1,3,5-triazin-2-yl)-2-(1H-pyrazol-5-ylamino)-midazo[1,2-a]pyridin-6-yl)-1,2-butanediol]
mTOR
  pIC50: 5.92
PI3Kα
  pIC50: 6.77

## Cc1nc(Nc2cc(OCC(F)(F)F)cnn2)cc(-c2c(Nc3cc[nH]n3)nc3cccnn23)n1 [Cpd 60, 3-(2-methyl-6-((5-(2,2,2-trifluoroethoxy)-3-pyridazinyl)amino)-4-pyrimidinyl)-N-1H-pyrazol-3-ylimidazo[1,2-b]pyridazin-2-amine]
mTOR
  pIC50: 8.00
PI3Kα
  pIC50: 4.41

## Cc1nc(N)nc(-c2c(Nc3cc[nH]n3)nc3ccc(-c4ccoc4)cn23)n1 [Cpd 105, 3-(4-amino-6-methyl-1,3,5-triazin-2-yl)-6-(3-furanyl)-N-1H-pyrazol-3-ylimidazo[1,2-a]pyridin-2-amine]
mTOR
  pIC50: 7.85
PI3Kα
  pIC50: 7.40

## Cc1nc(Nc2ccc(N3CCOCC3)nn2)cc(-c2c(Nc3cc[nH]n3)nc3ccccn23)n1 [Cpd 49, 3-(2-methyl-6-((6-(4-morpholinyl)-3-pyridazinyl)amino)-4-pyrimidinyl)-N-1H-pyrazol-3-ylimidazo[1,2-a]pyridin-2-amine]
mTOR
  pIC50: 7.10
PI3Kα
  pIC50: 6.89

## Cc1nc(N)nc(-c2c(Nc3cc[nH]n3)nc3ccc(-c4cccc(NC(=O)C5CC5)c4)cn23)n1 [Cpd 115, N-(3-(3-(4-amino-6-methyl-1,3,5-triazin-2-yl)-2-(1H-pyrazol-3-ylamino)imidazo[1,2-a]pyridin-6-yl)phenyl)cyclopropanecarboxamide]
mTOR
  pIC50: 8.52
PI3Kα
  pIC50: 7.40

## Cc1nc(N)cc(-c2c(Nc3cc[nH]n3)nc3ccc(OCCN4CCCC4)nn23)n1 [Cpd 73]
mTOR
  pIC50: 7.30
PI3Kα
  pIC50: 6.10

## CNS(=O)(=O)c1ccc(-c2ccc3nc(Nc4cc[nH]n4)c(-c4nc(C)nc(N)n4)n3c2)cc1 [Cpd 351, 4-(3-(4-amino-6-methyl-1,3,5-triazin-2-yl)-2-(1H-pyrazol-3-ylamino)imidazo[1,2-a]pyridin-6-yl)-N-methylbenzenesulfonamide]
mTOR
  pIC50: 6.64
PI3Kα
  pIC50: 6.32

## COCCOc1ccc2nc(Nc3cc[nH]n3)c(-c3cc(N)nc(C)n3)n2n1 [Cpd 69, 3-(6-amino-2-methyl-4-pyrimidinyl)-6-(2-methoxyethoxy)-N-1H-pyrazol-3-ylimidazo[1,2-b]pyridazin-2-amine]
mTOR
  pIC50: 8.40
PI3Kα
  pIC50: 7.05

## CC(=O)Nc1cccc(-c2ccc3nc(Nc4cc[nH]n4)c(-c4nc(C)nc(N)n4)n3c2)c1 [Cpd 114, N-(3-(3-(4-amino-6-methyl-1,3,5-triazin-2-yl)-2-(1H-pyrazol-3-ylamino)imidazo[1,2-a]pyridin-6-yl)phenyl)acetamide]
mTOR
  pIC50: 8.00
PI3Kα
  pIC50: 7.00

## Cc1nc(Nc2cccnn2)cc(-c2c(Nc3ccn(C)n3)nc3cccnn23)n1 [Cpd 34, N-(1-methyl-1H-pyrazol-3-yl)-3-(2-methyl-6-(3-pyridazinylamino)-4-pyrimidinyl)imidazo[1,2-b]pyridazin-2-amine]
mTOR
  pIC50: 6.36
PI3Kα
  pIC50: 6.12

## Cc1nc(NC(=O)N2CCN(C)CC2)cc(-c2c(Nc3cc[nH]n3)nc3cccnn23)n1 [Cpd 77, 4-methyl-N-(2-methyl-6-(2-(1H-pyrazol-3-ylamino)imidazo[1,2-b]pyridazin-3-yl)-4-pyrimidinyl)-1-piperazinecarboxamide]
mTOR
  pIC50: 5.57
PI3Kα
  pIC50: 4.82

## Cc1nc(N)cc(-c2c(Nc3ccc(NC(=O)Nc4ccncc4)cc3)nc3ccccn23)n1 [Cpd 57, 1-(4-((3-(6-amino-2-methyl-4-pyrimidinyl)imidazo[1,2-a]pyridin-2-yl)amino)phenyl)-3-(4-pyridinyl)urea]
mTOR
  pIC50: 8.00
PI3Kα
  pIC50: 8.00

## CC(=O)n1ccc(Nc2nc3cccnn3c2-c2cc(N)nc(C)n2)n1 [Cpd 67, N-(1-acetyl-1H-pyrazol-3-yl)-3-(6-amino-2-methyl-4-pyrimidinyl)imidazo[1,2-b]pyridazin-2-amine]
mTOR
  pIC50: 8.00
PI3Kα
  pIC50: 6.12

## Cc1nc(N)nc(-c2c(Nc3cc[nH]n3)nc3cc(C4=CCN(C(=O)OC(C)(C)C)CC4)ccn23)n1 [Cpd 183, tert-butyl 4-(3-(4-amino-6-methyl-1,3,5-triazin-2-yl)-2-(1H-pyrazol-3-ylamino)imidazo[1,2-a]pyridin-7-yl)-3,6-dihydro-1(2H)-pyridinecarboxylate]
mTOR
  pIC50: 6.34
PI3Kα
  pIC50: 7.30

## Cc1nc(N)nc(-c2c(Nc3cc[nH]n3)nc3ccc(-c4ccc(C(=O)O)cc4C)cn23)n1 [Cpd 177, 4-(3-(4-amino-6-methyl-1,3,5-triazin-2-yl)-2-(1H-pyrazol-3-ylamino)imidazo[1,2-a]pyridin-6-yl)-3-methylbenzoic acid]
mTOR
  pIC50: 9.00
PI3Kα
  pIC50: 7.10

## Cc1nc(NC(=O)N(C)C)cc(-c2c(Nc3cc[nH]n3)nc3cccnn23)n1 [Cpd 75, 1,1-dimethyl-3-(2-methyl-6-(2-(1H-pyrazol-3-ylamino)imidazo[1,2-b]pyridazin-3-yl)-4-pyrimidinyl)urea]
mTOR
  pIC50: 5.85
PI3Kα
  pIC50: 4.38

## Cc1nc(-c2c(Nc3cccc(O)c3)nc3ccccn23)c2nc[nH]c2n1 [Cpd 2]
mTOR
  pIC50: 7.62
PI3Kα
  pIC50: 7.70

## COc1ccc(Nc2cc(-c3c(Nc4cc[nH]n4)nc4cccnn34)nc(C)n2)cc1 [Cpd 33]
mTOR
  pIC50: 5.55
PI3Kα
  pIC50: 6.18

## CC(=O)Nc1cc(-c2c(Nc3ccn(C)n3)nc3c(F)cccn23)nc(C)n1 [Cpd 63, N-(6-(8-fluoro-2-((1-methyl-1H-pyrazol-3-yl)amino)imidazo[1,2-a]pyridin-3-yl)-2-methyl-4-pyrimidinyl)acetamide]
mTOR
  pIC50: 7.22
PI3Kα
  pIC50: 5.69
